The source of these data is PMC4919375, “Improved in vivo antitumor effect of a daunorubicin - GnRH-III bioconjugate modified by apoptosis inducing agent butyric acid on colorectal carcinoma bearing mice” (Investigational New Drugs, 2016).

For data set [1], the system named is NSG healthy mice. The experiment in a line: Chronic toxicity of daunorubicin on NSG healthy mice. Format: in vivo, mouse. Here is the method: NSG adult male mice, weighing 26–34 g, were used. Daunorubicin was dissolved in distilled water at a concentration that allowed the dose to be given in a volume of 0.1 mL/10 g body weight. In this experiment, each group consisted of 3 mice, which were treated by intraperitoneal (i.p.) administration on days 1, 4, 8, 12 and 16. The toxicity was assessed on the basis of lifespan and body weight and the survival time was followed for 20 days.

Data set [2] concerns HT-29 orthotopic primary human colon carcinoma. The experiment in a line: Tumor growth inhibition, orthotopic HT-29 human colon carcinoma in NSG mice. The data set is classed as in vivo, mouse. To be noted: orthotopic HT-29 in NSG mice, Dau 1 mg/kg i.v. weekly x7, 7 mice/group; for Tumor growth inhibition compared to the control group: tumor weight on day 50, bioconjugates 15 mg Dau content/kg i.v. x5 then 7.5 mg Dau content/kg i.p. x8, twice a week; for Tumor weight on day 50 after tumor transplantation: relative to control, bioconjugates 15 mg Dau content/kg i.v. x5 then 7.5 mg/kg i.p. x8, mean. An excerpt: Female NSG mice, weighing 24–28 g, were used in this study. The xenografts were established by subcutaneous injection of ca. 10^6 HT-29 (GnRH receptor positive) human colon carcinoma cells, which were from ATCC and cultured according to their standards. The mice with palpable tumors were killed by cervical-dislocation, disinfected with iodine, and the subcutaneous tumor was dissected out aseptically. Tumor pieces of 2–3 mm^3 were transplanted under aseptic conditions, orthotopically, into narcotized NSG mice.
For direct implantation, mice were anesthetized (narcotic mixture: tiletamine, zolazepam, xylazine, butorphanol) and the abdomen was sterilized with iodine and alcohol swabs. A small midline incision (0.5 cm) was made and the colorectal part of the intestine was exteriorized. Serosa of the site where the tumor pieces were to be implanted was removed. A piece of 2 mm^3 HT-29 human colon tumor was implanted on the top of the animal intestine; an 8/0 surgical (polypropylene) suture was used to suture it on the wall of the intestine. The intestine was returned to the abdominal cavity and the abdominal wall was closed with 4/0 surgical (polyglycolic acid) sutures. The wound was sterilized with iodine and alcohol swab again and the animals were kept in a sterile environment. For pain release and rehydration, mice were treated s.c. with 100 mg/kg algopyrine in Ringer solution containing 5 % glucose. On the next day, no signs of pain and stress of mice were observed.
(§1) Based on the results of the chronic toxicity study, we used only 1 mg (1.773 μmol)/kg free Dau, weekly, in the Dau treated group. Thirteen treatments were applied from the day 5 after tumor transplantation until the day 50 in the groups treated with the bioconjugates (every Monday and Thursday). The treatments were performed by i.v. (intravenous) or i.p. administration; the compounds were dissolved in distilled water (0.1 mL/10 g body weight).
In this experiment, 7 mice/group were used for the treatment with the bioconjugates (GnRH-III[^4Lys(Ac),^8Lys(Dau = Aoa)] and GnRH-III[^4Lys(Bu),^8Lys(Dau = Aoa)]) as well as in the control group.
The bioconjugates were administered at different doses during the treatment period. In the first five treatments, they were i.v. administered, at a dose of 28.435 μmol/kg body weight (15 mg Dau content in the bioconjugate/kg). From the 6th to the 13th treatment, they were i.p. administered at a dose of 14.217 μmol/kg body weight (7.5 mg Dau content in the bioconjugate/kg). The first five doses represented the initial round of treatments, which was followed by the maintenance therapy. […]
After that, the tumors were removed and the tumor weight was determined in all cases. […]

For data set [3], the system named is liver. The experiment in a line: Macroscopic liver toxicity (liver weight). The data set is classed as in vivo, mouse. To be noted: Dau 1 mg/kg i.v. weekly x7; for Liver weight on day 50 after tumor transplantation: relative to control, HT-29 bearing NSG mice, bioconjugates 15 then 7.5 mg Dau content/kg twice a week, mean. As for the experimental part:
as §1
(§2) The bioconjugates were administered at different doses during the treatment period. In the first five treatments, they were i.v. administered, at a dose of 28.435 μmol/kg body weight (15 mg Dau content in the bioconjugate/kg). From the 6th to the 13th treatment, they were i.p. administered at a dose of 14.217 μmol/kg body weight (7.5 mg Dau content in the bioconjugate/kg). The first five doses represented the initial round of treatments, which was followed by the maintenance therapy. In the maintenance treatments, 5 % glucose solution instead of distilled water was used, in order to minimize the harmful effects of tfa salts that were present in the lyophilized bioconjugates.
(§3) The mice from all groups were sacrificed by deadly overslept cocktail (0.3 mL/mouse concentrated nembutal (pentobarbitone) solution), on day 50 after tumor transplantation.

The subject of data set [4] is heart. As to the kind of experiment: Liver- and cardiotoxicity, histological examination and side effects. The following applies: at the applied doses; liver weight, hematoxylin and eosin histology of heart, light microscopy. The data set is classed as in vivo, mouse. The text has this: The removed and fixed tissue samples were dehydrated in a graded series of ethanol, infiltrated with xylene and embedded into paraffin. Histological sections were stained with Harris hematoxylin and eosin (10:1, v/v, 1 % solutions) in acidified 70 % ethanol and mounted. The histological samples were examined under a light microscope (Olympus CH30, Olympus Optical, Japan).

Data set [5] concerns HT-29 orthotopic primary human colon carcinoma. As to the kind of experiment: Macroscopic metastases on different organs. Format: in vivo, mouse. The following applies: orthotopic HT-29 in NSG mice, day 50; 7 animals in each group. As for the experimental part: as §1, §2, §3
The test system is the same in data set [6]. As to the kind of experiment: Proliferative index in orthotopic HT-29 tumor tissues (BrdU). The following applies: orthotopic HT-29 in NSG mice, BrdU positive cells; relative to control; mean. The data set is classed as in vivo, mouse. Here is the method: (§4) Before ending the experiment (30 min prior to sacrificing the mice), the tumor bearing animals were injected i.p. with 5-bromo-2 V-deoxyuridine (BrdU, 200 mg/kg; Sigma-Aldrich Kft, Budapest, Hungary). After 6 h, 5–7 μm thick tissue sections were excised from the newly frozen tumors and used for the detection of BrdU positive cells using an anti-BrdU monoclonal antibody (Becton Dickinson Hungary Kft., Budapest, Hungary), according to the manufacturer’s protocol. Positive cells were visualized with TRITC-conjugated anti-mouse IgG (1:100, Sigma). Endothelial cells were distinguished from tumor cells by treating the samples with rat anti-mouse CD31 antibody and labelled with biotinylated anti-rat IgG and streptavidin-FITC (Vector Laboratories, Burlingame, CA). The nuclei were stained with the Hoechst 33,342 dye (Molecular Probes, Eugene, OR). The number of labelled HT-29 tumor cells and the quantity of CD31-positive samples were determined in two different tumors by microscopic analysis of 6 independent regions. The vascularization extent of primary tumors was determined by microscopic analysis of two different living tumors, where four independent areas of living cells were counted and the percentage of separated endothelial cells covering a 10× magnification field of vision was calculated.

For data set [7] the test system is unchanged. As to the kind of experiment: Vascularization in orthotopic HT-29 tumor tissues (CD31). To be noted: orthotopic HT-29 in NSG mice, CD31-positive endothelial cells; control 100 %; mean. Format: in vivo, mouse. As for the experimental part: as §4
The test system of data set [8] is GnRH receptor. The following applies: butyrated compared with acetylated bioconjugate; cited from earlier work. An excerpt: (§5) In our research, lamprey GnRH-III (Glp-His-Trp-Ser-His-Asp-Trp-Lys-Pro-Gly-NH2, where Glp is pyroglutamic acid) has been employed as a key molecule for drug targeting. […] Thus, hormonal side effects in case of targeted tumor therapy using GnRH-III as a homing device are expected to be insignificant, this feature being important in the treatment of hormone independent tumors like colorectal cancer. Considering that lysine in position 8 of GnRH-III can be us ...

Data set [9] concerns HT-29 human colon cancer cells. The following applies: cited from earlier work.
Source text: as §5

For data set [10] the following is noted: butyrated version compared with acetylated; previous in vitro studies; cited from earlier work. The text has this:
In our research, GnRH-III peptide was mainly employed as a targeting moiety, due to its low endocrine effect in mammals and significant antiproliferative effect on different types of cancer cells. […] However, the efficacy of the bioconjugates was highly dependent on the tumor type and whether this was subcutaneously or orthotopically developed in mice. Orthotopically developed tumors represent the ...

On to `COc1cccc2c1C(=O)c1c(O)c3c(c(O)c1C2=O)C[C@@](O)(C(C)=O)C[C@@H]3O[C@H]1C[C@H](N)[C@H](O)[C@H](C)O1` [Daunorubicin], for which the “Day on which the first animal died” value in data set [1] (1 mg/kg i.p. on days 1, 4, 8, 12 and 16, NSG healthy male mice, 3 mice/group, experiment stopped on day 20) worked out at 20 days. Moreover, the Mice died in data set [1] (2 mg/kg i.p. on days 1, 4, 8, 12 and 16, died on day 13 after the fourth treatment, NSG healthy male mice, 3 mice/group) is listed as 2 of 3. In [1] (1 or 2 mg/kg i.p. on days 1, 4, 8, 12 and 16, both doses, NSG healthy male mice), the Body weight change entry is listed as “significant loss of weight”. Moreover, in data set [1] (decreased from ~30 g during 20 days, i.p. on days 1, 4, 8, 12 and 16, NSG healthy male mice), the “Body weight of the animals at the end” value is recorded as ~ 20 g. Besides, the Maximum tolerated dose in data set [1] (immunodeficient tumor bearing mice) is given as 1–2 mg/kg/week. In data set [2], the “Tumor growth inhibition compared to the control group” value is on record as “about 30%” and the “Tumor weight on day 50 after tumor transplantation” value is reported as 70.3%. Also, in data set [3], the “Liver weight on day 50 after tumor transplantation” value is listed as 89.1%. The “Decrease of average liver weight” value in data set [3] (vs control, day 50, not significant) is listed as “about 11%”. In addition, in data set [4], the Liver- or cardiotoxicity result was “neither the bioconjugates nor the free daunorubicin showed any liver- or cardiotoxicity”. In data set [5], the “Metastasis on diaphragm, animals affected/animals in group” value is given as 3/7; the “Metastasis on diaphragm, percent of animals” value came out at 42.9%; the “Metastasis on liver, animals affected/animals in group” value is recorded as 7/7; the “Metastasis on liver, percent of animals” value came out at 100%. In addition, in data set [5], the “Metastasis on lung, animals affected/animals in group” value is on record as 7/7; the “Metastasis on lung, percent of animals” value was determined as 100%; the “Metastasis on lymph node, animals affected/animals in group” value is listed as 4/7; the “Metastasis on pancreas, animals affected/animals in group” value is 0/7. In data set [5], the “Metastasis on pancreas, percent of animals” value is 0%; the “Metastasis on spleen, animals affected/animals in group” value is 0/7; the “Metastasis on spleen, percent of animals” value came out at 0%. Further, the “Proliferation index (%)” value in data set [6] worked out at 98.6%. Also, the “Vascularization (number of blood vessels), to the control” value in [7] came out at 112%.
In general, IC50 refers to the concentration that gives 50% inhibition. For the molecule GnRH-III[^4Lys(Bu),^8Lys(Dau = Aoa)], in [2], the “Tumor growth inhibition compared to the control group” value is ~ 40% and the “Tumor weight on day 50 after tumor transplantation” value is reported as 60.6%. Also, the “Liver weight on day 50 after tumor transplantation” value in data set [3] came out at 105.0%. For the same molecule, in data set [5], the “Metastasis on diaphragm, animals affected/animals in group” value is 3/7; the “Metastasis on diaphragm, percent of animals” value is given as 42.9%; the “Metastasis on liver, animals affected/animals in group” value is given as 7/7; the “Metastasis on liver, percent of animals” value came out at 100%. Besides, in data set [5], the “Metastasis on lung, animals affected/animals in group” value is 7/7; the “Metastasis on lung, percent of animals” value turned out to be 100%; the “Metastasis on lymph node, animals affected/animals in group” value is on record as 3/7; the “Metastasis on lymph node, percent of animals” value is reported as 42.9%. Further, in [5], the “Metastasis on pancreas, animals affected/animals in group” value is listed as 0/7; the “Metastasis on pancreas, percent of animals” value is reported as 0%; the “Metastasis on spleen, animals affected/animals in group” value is listed as 1/7; the “Metastasis on spleen, percent of animals” value was 14.3%. Also, the “Proliferation index (%)” value in data set [6] came out at 84.5%. Also, the “Binding to the GnRH receptor (affinity)” value in data set [8] is reported as “higher affinity”. Besides, in data set [9], the IC50 was 2.2 ± 0.6 µM. Moreover, in [10], the Cellular uptake result is “higher receptor binding affinity and cellular uptake”.
